This passage reports IC50 results from patent publication EP0418064B1, “Naphthalene and tetrahydronaphthalene gem-diphosphonate derivatives” (SYMPHAR S.A., priority 1989, dated 1991).

pIC50: −log10 of the molar value.

The test relates to Rat liver homogenates. The test is described as follows: Antioxidant activity: FeSO₄-induced peroxide production in rat liver homogenates (thiobarbituric acid reaction). The note with it: rat liver homogenate incubated with FeSO₄; peroxide determined by thiobarbituric acid reaction, malonaldehyde as standard; read-out: IC₅₀. Type of test: biochemical. As to the method:
Rat liver homogenates were prepared according to Fraga, C.G. et al. Free Radicals Biol. Med., 4, 155, 1988 and Kornburst D.J. et al. Lipids 15, 315, 1980.
Peroxides were generated by incubation of the homogenate with the FeSO₄ as described by Quitanilha A.T. et al. Ann. N.Y., Acad. Sci. 393, 32, 1982.
Compounds to be tested for their antioxidant activity were dissolved in DMSO and added to the incubation mixture. The amount of peroxide produced was determined by the thiobarbituric acid reaction using malonaldehyde as standard.
As for `CCOP(=O)(OCC)C(=Cc1cc(C(C)(C)C)c(O)c2ccccc12)P(=O)(OCC)OCC` [Example 1, Tetraethyl 2-[3-t-butyl-4-hydroxynaphthyl]ethenylidene-1,1-diphosphonate], the pIC50 was 5.82.
As for `CC(C)OP(=O)(OC(C)C)C(=Cc1cc(C(C)(C)C)c(O)c2ccccc12)P(=O)(OC(C)C)OC(C)C` [Example 2, Tetraisopropyl 2-[3-t-butyl-4-hydroxynaphthyl]ethenylidene-1,1-diphosphonate], the figure is 6.15; as for `CCOP(=O)(OCC)C(=Cc1cc(C(C)(C)C)c(O)c2c1CCCC2)P(=O)(OCC)OCC` [Example 6, Tetraethyl 2-(3-tert-butyl-4-hydroxy-5,6,7,8-tetrahydronaphthyl)-ethenylidene-1,1-diphosphonate], 5.15; as for `CC(C)OP(=O)(OC(C)C)C(=Cc1cc(C(C)(C)C)c(O)c2c1CCCC2)P(=O)(OC(C)C)OC(C)C` [Example 8, Tetraisopropyl 2-[3-tert-butyl-4-hydroxy-5,6,7,8-tetrahydronaphthyl]-ethenylidene-1,1-diphosphonate], 5.60.
